Data set [1] deals with Cholinesterase (Equus caballus, UniProt P81908).
Description: Inhibition of equine serum BChE using BTCI as substrate incubated for 5 mins followed by substrate addition and measured after 5 mins by spectrophotometric based Ellman's method
In data set [2] the target is Acetylcholinesterase (Electrophorus electricus) (UniProt O42275). Kind of data set: Non-competitive inhibition of Electric eel AChE using ATCI as substrate incubated for 5 mins followed by substrate addition and measured after 5 mins by spectrophotometric based Cornish-Bowden plot analysis. The settings on record: time 10.0 min.
For data set [3], the system named is Mus musculus. Nature of the data set: Analgesic activity in formalin-induced nociception CD-1 mouse model assessed as reduction in pain behaviour by measuring less licking of formalin injected hind paw compound administered intraperitoneally prior to formalin induction and measured during early phase (0 to 5 mins after formalin injection) by formalin test. In kind it is functional. Particulars: CD-1, ip, time 0-5 min.

The subject of data set [4] is Rattus norvegicus. Kind of data set: Analgesic activity in carragenan-induced thermal hyperalgesia model of Wistar (Krf:WI) rat assessed as latency of nociceptive response for radiant heat stimulation at 30 mg/kg treated prior to carrageenan challenge and measured after 2 hrs (reference value: 63.6%). It counts as functional.
The nature of data set [5]: in vitro. The settings on record: PAMPA, pH 7.4. A general note: The PAMPA barrier holds no transporters, so it reflects passive diffusion.
Description: Permeability of compound in PBS buffer assessed as permeability coefficient at pH 7.4 at 200 uM incubated for 5 hrs by PAMPA based LC-MS analysis
The test system of data set [6] is Rattus norvegicus. Nature of the data set: Antiinflammatory activity against Wistar (Krf:WI) rat assessed as reduction in carragenan-induced paw edema at 22.5 mg/kg treated prior to carrageenan challenge and measured after 24 hrs by plethysmometry relative to control. It counts as functional.
Data set [7] concerns the target Acetylcholinesterase (Homo sapiens, UniProt P22303). Kind of data set: Inhibition of recombinant human AChE using ATCI as substrate incubated for 5 mins followed by substrate addition and measured after 5 mins by spectrophotometric based Ellman's method.
Data set [8] relates to Rattus norvegicus. Kind of data set: Analgesic activity in Wistar (Krf:WI) rat assessed as inhibition of carrageenan-induced mechanical inflammatory hyperalgesia by measuring paw withdrawl threshold at 22.5 mg/kg treated prior to carrageenan challenge and measured upto 24 hrs (reference value: 88.4 to 90.9 %). In kind it is functional. The arrangement: scale not given: the % may be the effect or the level left. The settings on record: time hrs <=24.

Data set [9] has as its system Rattus norvegicus. Kind of data set: Antiinflammatory activity against Wistar (Krf:WI) rat assessed as reduction in carragenan-induced paw edema at 30 mg/kg treated prior to carrageenan challenge and measured after 2 hrs by plethysmometry relative to control. It counts as functional.
Data set [10] relates to Rattus norvegicus. Nature of the data set: Antiinflammatory activity against Wistar (Krf:WI) rat assessed as reduction in carragenan-induced paw edema at 30 mg/kg treated prior to carrageenan challenge and measured after 1 hr by plethysmometry relative to control. In kind it is functional.
Data set [11] concerns Rattus norvegicus. Nature of the data set: Memory enhancement effect in dizocilpine-induced Wistar (Krf:WI) rat model of amnesia assessed as increase in step through latency administered with compound intraperitoneally and measured after 30 to 45 mins by step-through passive avoidance test. It counts as functional, organism-based. Particulars: dose 1.25-5 mg/kg, time 30-45 min.

The subject of data set [12] is Rattus norvegicus. Nature of the data set: Antiinflammatory activity against Wistar (Krf:WI) rat assessed as reduction in carragenan-induced paw edema at 30 mg/kg treated prior to carrageenan challenge and measured after 24 hrs by plethysmometry relative to control. In kind it is functional.
Data set [13] relates to Rattus norvegicus. Nature of the data set: Analgesic activity in Wistar (Krf:WI) rat assessed as inhibition of carrageenan-induced mechanical inflammatory hyperalgesia by measuring paw withdrawl threshold at 30 mg/kg treated prior to carrageenan challenge and measured after 3 to 24 hrs (reference value: 88.4 to 90.9 %). In kind it is functional. Also noted: scale not given: the % may be the effect or the level left. The settings on record: time 3-24 hrs.

Data set [14] concerns Rattus norvegicus. Nature of the data set: Analgesic activity in carragenan-induced thermal hyperalgesia model of Wistar (Krf:WI) rat assessed as latency of nociceptive response for radiant heat stimulation at 30 mg/kg treated prior to carrageenan challenge and measured after 6 hrs (reference value: 43.2%). It counts as functional.
Data set [15] has as its system Rattus norvegicus. Kind of data set: Antiinflammatory activity against Wistar (Krf:WI) rat assessed as reduction in carragenan-induced paw edema at 22.5 mg/kg treated prior to carrageenan challenge and measured after 2 hrs by plethysmometry relative to control. In kind it is functional.
The target in data set [16] is Cholinesterase (Homo sapiens, UniProt P06276).
Chain of Cholinesterase (Homo sapiens, UniProt P06276) (P06276 whole entry): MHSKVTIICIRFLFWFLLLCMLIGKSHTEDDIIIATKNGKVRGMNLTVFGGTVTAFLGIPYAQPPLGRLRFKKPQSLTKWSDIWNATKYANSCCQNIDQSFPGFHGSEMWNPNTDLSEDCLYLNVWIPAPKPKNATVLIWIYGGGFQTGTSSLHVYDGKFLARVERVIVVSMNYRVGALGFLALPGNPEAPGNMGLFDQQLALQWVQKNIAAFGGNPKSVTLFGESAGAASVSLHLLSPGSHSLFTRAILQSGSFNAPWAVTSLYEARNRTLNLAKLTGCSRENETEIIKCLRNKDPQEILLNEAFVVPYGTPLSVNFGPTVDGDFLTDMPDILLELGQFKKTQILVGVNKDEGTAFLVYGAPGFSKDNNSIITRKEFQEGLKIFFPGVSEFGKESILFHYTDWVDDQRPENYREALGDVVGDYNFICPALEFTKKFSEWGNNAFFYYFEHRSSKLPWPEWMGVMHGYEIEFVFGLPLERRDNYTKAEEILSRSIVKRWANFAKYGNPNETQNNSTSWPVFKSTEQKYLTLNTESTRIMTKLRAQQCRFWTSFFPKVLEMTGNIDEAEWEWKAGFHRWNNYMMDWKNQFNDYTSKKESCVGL
Description: Inhibition of human BuChE by spectrophotometric based Ellman's method
Data set [17] concerns the target T1, Amine oxidase [flavin-containing] B (Homo sapiens, UniProt P27338).
T1 sequence (P27338 whole entry): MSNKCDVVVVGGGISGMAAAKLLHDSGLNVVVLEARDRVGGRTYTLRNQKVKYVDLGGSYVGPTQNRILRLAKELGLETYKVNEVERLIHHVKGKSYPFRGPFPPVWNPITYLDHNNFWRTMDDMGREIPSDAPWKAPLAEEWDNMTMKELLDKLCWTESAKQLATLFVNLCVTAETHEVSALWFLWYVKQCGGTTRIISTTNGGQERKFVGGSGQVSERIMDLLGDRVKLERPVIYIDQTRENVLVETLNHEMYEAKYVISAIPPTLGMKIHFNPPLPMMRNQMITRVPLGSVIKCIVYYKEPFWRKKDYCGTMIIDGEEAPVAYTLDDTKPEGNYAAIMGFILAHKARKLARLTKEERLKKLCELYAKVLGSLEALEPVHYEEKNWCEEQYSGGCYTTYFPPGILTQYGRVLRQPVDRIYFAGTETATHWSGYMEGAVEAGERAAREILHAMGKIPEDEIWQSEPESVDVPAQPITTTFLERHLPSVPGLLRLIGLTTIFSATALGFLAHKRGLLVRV
Kind of data set: biochemical. It counts as cell-based, BTI.
Description: Inhibition of recombinant human MAO-B expressed in baculovirus infected BTI cells using p-tyramine as substrate by fluorometric assay

Active and inactive are the calls of the source.

The IC50 is the point on the concentration scale where inhibition reaches its midpoint. As usually defined, the ED50 is the midpoint of the dose-response relation. Usually Papp stands for a coefficient for how fast a substance crosses the barrier. For orientation: inhibition in vivo means the change of the read-out against control, counted positive when it falls.

Chain of Acetylcholinesterase (P22303 whole entry): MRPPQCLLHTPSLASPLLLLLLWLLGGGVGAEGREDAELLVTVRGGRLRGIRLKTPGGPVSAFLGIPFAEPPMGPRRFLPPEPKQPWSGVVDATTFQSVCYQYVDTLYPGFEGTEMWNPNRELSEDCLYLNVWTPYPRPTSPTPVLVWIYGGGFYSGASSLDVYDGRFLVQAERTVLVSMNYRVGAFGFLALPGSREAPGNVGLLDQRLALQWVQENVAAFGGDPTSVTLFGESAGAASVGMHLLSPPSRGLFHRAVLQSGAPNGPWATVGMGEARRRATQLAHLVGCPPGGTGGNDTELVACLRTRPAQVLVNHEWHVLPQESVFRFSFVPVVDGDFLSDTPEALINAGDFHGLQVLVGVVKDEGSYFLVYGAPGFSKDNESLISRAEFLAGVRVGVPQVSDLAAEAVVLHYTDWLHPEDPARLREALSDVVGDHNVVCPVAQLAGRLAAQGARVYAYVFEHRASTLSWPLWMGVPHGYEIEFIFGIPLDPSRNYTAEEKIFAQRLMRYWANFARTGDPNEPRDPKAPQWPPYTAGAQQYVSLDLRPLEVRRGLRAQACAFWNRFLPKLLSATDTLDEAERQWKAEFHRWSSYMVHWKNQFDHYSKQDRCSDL
Chain of Acetylcholinesterase (Electrophorus electricus) (O42275 24-633 limits assumed): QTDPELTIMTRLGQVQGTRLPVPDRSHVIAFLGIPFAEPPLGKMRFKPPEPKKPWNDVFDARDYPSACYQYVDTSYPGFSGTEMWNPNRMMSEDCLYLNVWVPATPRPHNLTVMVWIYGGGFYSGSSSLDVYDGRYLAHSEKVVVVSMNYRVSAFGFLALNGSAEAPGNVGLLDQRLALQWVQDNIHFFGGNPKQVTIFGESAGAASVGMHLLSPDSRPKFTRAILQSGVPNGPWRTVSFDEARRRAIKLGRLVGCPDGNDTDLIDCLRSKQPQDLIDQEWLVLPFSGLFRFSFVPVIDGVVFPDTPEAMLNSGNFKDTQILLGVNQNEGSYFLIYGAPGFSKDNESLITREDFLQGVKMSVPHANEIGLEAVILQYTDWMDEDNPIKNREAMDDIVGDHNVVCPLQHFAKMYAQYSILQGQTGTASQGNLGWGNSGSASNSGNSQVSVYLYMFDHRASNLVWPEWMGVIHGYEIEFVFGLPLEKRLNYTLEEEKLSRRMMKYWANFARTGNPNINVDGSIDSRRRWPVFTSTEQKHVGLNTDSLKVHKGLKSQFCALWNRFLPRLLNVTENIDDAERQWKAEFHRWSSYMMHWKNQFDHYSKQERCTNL
Chain of Cholinesterase (Equus caballus, UniProt P81908) (P81908 whole entry): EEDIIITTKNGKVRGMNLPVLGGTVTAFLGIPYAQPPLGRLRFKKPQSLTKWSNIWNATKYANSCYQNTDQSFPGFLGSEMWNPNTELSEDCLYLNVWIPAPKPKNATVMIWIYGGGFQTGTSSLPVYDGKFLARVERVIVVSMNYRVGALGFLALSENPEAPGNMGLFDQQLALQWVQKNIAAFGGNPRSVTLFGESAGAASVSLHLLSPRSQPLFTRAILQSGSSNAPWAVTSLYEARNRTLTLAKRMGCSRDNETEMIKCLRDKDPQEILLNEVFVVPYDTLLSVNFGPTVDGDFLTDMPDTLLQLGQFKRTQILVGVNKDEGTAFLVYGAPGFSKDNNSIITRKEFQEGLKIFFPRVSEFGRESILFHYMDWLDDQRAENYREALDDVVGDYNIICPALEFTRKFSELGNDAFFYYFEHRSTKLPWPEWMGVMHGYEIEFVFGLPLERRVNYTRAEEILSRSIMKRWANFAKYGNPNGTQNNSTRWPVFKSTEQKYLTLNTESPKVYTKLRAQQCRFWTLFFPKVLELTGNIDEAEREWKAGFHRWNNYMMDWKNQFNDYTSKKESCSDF

In the case of `O=c1c2ccccc2oc2ccc(OCCCCCN3CCCCCC3)cc12`, the IC50 amounted to 880 nM in data set [1], 392 nM in data set [7], 1280 nM in data set [16] and 775 nM in data set [17]. Further, in data set [2], the inhibition entry was “Active”. In data set [3], the ED50 worked out at 24.7 mg/kg. Further, the Activity in data set [4] is 102.8%; in data set [8], 94.6%; in [11], “Dose-dependent effect”; in [13] it was 118%; in data set [14], 92%. Besides, the Papp at 5 h, 200 µM in data set [5] stood at 5.6 ×10⁻⁶ cm/s. The inhibition in vivo at 22.5 mg/kg is 22.4% in data set [6] and 32.8% in data set [15]. In addition, the values for the inhibition in vivo at 30 mg/kg in [9], in data set [10] and in data set [12] were 53.3%, 77.9% and 57.8%, respectively.
